This passage reports Ki and inhibition results from ChEMBL document CHEMBL1125008 (J Med Chem, 1990).

Broadly, the Ki is the dissociation constant of the complex between target and ligand, obtained from inhibition or displacement. As usually defined, the inhibition is the change of the read-out against control, counted positive when it falls.

Molecules are shown by their SMILES.

Assay [1] deals with T1, Serotonin 3 receptor (5HT3) (Mus musculus, UniProt Q9JHJ5+P23979).
T1 sequence (Q9JHJ5 whole entry): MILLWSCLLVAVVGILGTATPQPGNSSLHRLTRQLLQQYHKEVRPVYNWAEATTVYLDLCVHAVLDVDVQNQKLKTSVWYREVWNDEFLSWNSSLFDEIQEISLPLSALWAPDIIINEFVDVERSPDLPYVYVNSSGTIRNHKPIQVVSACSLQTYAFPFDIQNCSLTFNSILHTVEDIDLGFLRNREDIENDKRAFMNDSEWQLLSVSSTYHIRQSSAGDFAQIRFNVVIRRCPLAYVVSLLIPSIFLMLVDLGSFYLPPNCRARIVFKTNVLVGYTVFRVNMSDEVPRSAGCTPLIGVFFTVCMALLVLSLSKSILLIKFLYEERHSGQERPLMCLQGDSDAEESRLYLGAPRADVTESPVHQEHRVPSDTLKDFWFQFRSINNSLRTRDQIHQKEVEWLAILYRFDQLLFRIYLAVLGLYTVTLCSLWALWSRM
T1 sequence (P23979 whole entry): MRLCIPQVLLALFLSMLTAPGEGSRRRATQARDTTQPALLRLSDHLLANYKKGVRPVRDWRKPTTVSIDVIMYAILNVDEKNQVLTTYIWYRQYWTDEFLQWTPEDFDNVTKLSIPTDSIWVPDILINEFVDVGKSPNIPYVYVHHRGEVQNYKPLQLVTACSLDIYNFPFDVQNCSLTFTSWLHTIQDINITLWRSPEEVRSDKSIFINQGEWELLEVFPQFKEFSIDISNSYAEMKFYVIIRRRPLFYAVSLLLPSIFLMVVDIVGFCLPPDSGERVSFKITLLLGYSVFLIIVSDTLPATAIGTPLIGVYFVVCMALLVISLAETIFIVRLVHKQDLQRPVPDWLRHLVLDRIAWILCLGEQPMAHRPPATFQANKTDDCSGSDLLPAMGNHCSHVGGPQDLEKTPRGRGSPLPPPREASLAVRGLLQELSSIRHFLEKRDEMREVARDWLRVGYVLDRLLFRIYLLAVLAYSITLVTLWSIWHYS
Briefly: (§1) The binding affinity was measured for 5-hydroxytryptamine 3 receptor on NG 108-15 cell line of mouse neuroblastoma-glioma cells in presence of [3H]5 radioligand (in vitro). It is filed as cell-based.

In assay [2] the target is T2, Serotonin 3 receptor (5HT3) (Mus musculus) (UniProt Q9JHJ5+P23979). The assay is described as §1. Type of assay: cell-based. The note with it: concentration not given here.
Assay [3] addresses T2, Serotonin 3 receptor (5HT3) (Mus musculus). In words: Percent inhibition of [3H]5 binding to 5-hydroxytryptamine 3 receptor was evaluated by injection of compound (75 microCi/kg, […]) into the tail vein of mice (in vivo). It is filed as organism-based.

Turning to `c1ccc2nc(N3CCNCC3)ccc2c1` [QUIPAZINE], in assay [1], the inhibition constant (Ki) was 8.67 nM.

Turning to `Cc1[nH]cnc1Cc1nc(-c2ccccc2)cs1`, in assay [2], the inhibition stood at 53%.

With `Cc1[nH]cnc1Cc1nc(-c2ccccc2F)cs1`, the inhibition in assay [2] came out at 66%.

On to `Cc1nccn1CC1CCc2c(c3ccccc3n2C)C1=O` (stereo not drawn) [ONDANSETRON], for which the Ki in assay [1] was 12 nM.

With `Cc1[nH]c2ccc(O)cc2c1CCN`, the Ki in assay [1] is recorded as 1430 nM.

On to `CN1[C@@H]2CC[C@H]1C[C@@H](OC(=O)c1c[nH]c3ccccc13)C2` [TROPISETRON], for which the Ki in assay [1] amounted to 3.8 nM.

For `Cc1[nH]cnc1Cc1nc(-c2cccc3cccnc23)cs1`, the inhibition in assay [3] was found to be 54%.

As to `COc1ccccc1-c1csc(Cc2[nH]cnc2C)n1`, the inhibition in assay [2] is 50%.
